Experimental findings from PMC5844890 (Scientific Reports, 2018) are described below.

Experiment [1] concerns MDA-MB-231 cells. Description: Anti-proliferative activity, MDA-MB-231 breast carcinoma cells (Coulter counting). Conditions: Homo sapiens, MDA-MB-231, 72 h; mean ± SD of three independent experiments; 3 days of incubation; read-out: Tumor cells IC50 MDA-MB-231. The class given is cell-based. The text has this:
(§1) The anti-proliferative activity of the synthesized benzofurane derivatives was studied in three human cancer cell lines [breast carcinoma (MDA-MB-231), lymphoblastic leukemia (CEM) and cervical carcinoma (HeLa) cells] and one endothelial cell line [human microvascular endothelial cells (HMEC-1)].
(§2) The human microvascular endothelial cell line HMEC-1 was obtained at passage 12 from the Centers for Disease Control and Prevention (Atlanta, GA, USA) and used from passage 17 till 27. Human breast carcinoma (MDA-MB-231), human cervical carcinoma (HeLa) and human T-lymphoid (CEM) cells were obtained from ATCC (Middlesex, UK). Cell lines were maintained in culture for up to 3 months and grown in DMEM, supplemented with 10% FBS, 0.01 M Hepes and 1 mM sodium pyruvate. All cells were cultured in a humidified 5% CO2 incubator at 37 °C.
(§3) HMEC-1 cells were seeded in 48-well plates at 20,000 cells/well. After 24 h, 5-fold dilutions of the compounds were added. The cells were allowed to proliferate 4 days in the presence of the compounds, trypsinized, and counted by means of a Coulter counter (Analis, Belgium). HeLa and MDA-MB-231 cells were seeded in 48-well plates at 10,000 cells/well. After 24 h, different concentrations of the compounds were added. After 3 days of incubation, the cells were trypsinized and counted in a Coulter counter. Suspension cells (human lymphoid Cem cells) were seeded in 96-well plates at 60,000 cells/well in the presence of different concentrations of the compounds, allowed to proliferate for 96 h, and counted in a Coulter counter. The 50% inhibitory concentration (IC50) was defined as the compound concentration required to reduce cell proliferation by 50%.

The test system of a further experiment is HeLa cells. Put plainly: Anti-proliferative activity, HeLa cervical carcinoma cells (Coulter counting). Format: cell-based. Conditions: Homo sapiens, 72 h, mean ± SD of three independent experiments, 3 days of incubation, read-out: Tumor cells IC50 HeLa.
Excerpt: as §1, §2, §3

Experiment [2] relates to HMEC-1 cells. Put plainly: Anti-proliferative activity, HMEC-1 microvascular endothelial cells (Coulter counting). The class given is cell-based. Conditions: Homo sapiens, HMEC-1, 96 h; mean ± SD of three independent experiments; 4 days; read-out: Endothelial cells IC50 HMEC-1.
Excerpt: as §1, §2, §3

In experiment [3] the test system is MDA-MB-231 cells. Description: Caspase-3 activity / apoptosis in live cells (fluorescence microscopy). Conditions: 1 µM, after 24 h. Format: cell-based, human. The procedure:
(§4) Figure 6 Mechanism of action of the benzofurane derivatives. (A) Inhibition of cell cycle progression. MDA-MB-231 cells were treated with DMSO (control) or compounds 8, 27 or 28 for 24 h. Next, the cells were harvested, stained with propidium iodide (PI), and cell cycle distribution was evaluated by flow cytometry. Percentages of cells in the different phases of the cell cycle are indicated. (B) Caspase-3 activity. MDA-MB-231 cells were seeded in 48-well plates at 40,000 cells/cm². After 24 h, different concentrations of compounds 8, 27 or 28 and 2 µM of the caspase-3 substrate DEVD-NucView488 were added. After 16 h, the cells were incubated with 2 µg/ml Hoechst 33342 to stain the nucleus, and imaged. (C) Disruption of the vascular network. HMEC-1 cells were cultured on matrigel for 3 h to allow the formation of tube-like structures. Next, different concentrations of compounds were added. Upper panel: After 90 min, pictures were taken and the tubular network was scored (3: intact network, 0: network completely destroyed). Bars show average ± SEM (n = 4). Lower panel: Microscopic pictures of the tubular network 3 h after addition of compound.
To confirm the capacity of compounds 27 and 28 to induce apoptosis, MDA-MB-231 cells were treated with the compounds for 24 h in the presence of NucView® 530 Caspase-3. This substrate is cleaved by active caspase-3 activity (the main executioner enzyme during apoptosis) to generate a fluorescent derivative that is analyzed using fluorescence microscopy.
MDA-MB-231 cells were seeded at 40,000 cells/cm². After 24 h, cells were incubated in Fluorobrite DMEM (Gibco), containing the compound and 2 µM of the caspase-3 substrate DEVD-NucView488 (Biotium, Hayward, CA). After 16 h, the DNA was stained with Hoechst33342 and the cells were imaged by fluorescence microscopy.

The test system of experiment [4] is HMEC-1 cells. Description: Disruption of a preformed vascular network on matrigel (tube formation). The class given is cell-based, human. The method, then:
as §4
Another feature of colchicine-site binding agents is their ability to destroy a 3-dimensional network of endothelial cells. To determine the vascular disrupting capacity of compounds 27 and 28, HMEC-1 cells were seeded on top of matrigel. This tumor derived extracellular matrix induces within 3 h the rearrangement of endothelial cells into a vascular network. Compounds 27 and 28 caused a disruption of the tubular network in a concentration-dependent manner (Fig. 6C).
Wells of a 96-well plate were coated with 70 µl matrigel (10 mg/ml, BD Biosciences, Heidelberg, Germany) at 4 °C. After gelatinization at 37 °C during 30 min, HMEC-1 cells were seeded at 60,000 cells/well on top of the matrigel in 200 µl DMEM containing 10% FCS. After 3 h of incubation at 37 °C, when the endothelial cells had reorganized to form tube-like structures, the compounds were added. Ninety minutes later, the cultures were photographed at 100 × magnification and analyzed using digitalized analysis.

`COCc1cc2cccc(NC(C)=C3C(=O)CC(c4ccccc4)CC3=O)c2o1` (stereo not drawn) [Compound 27, 2-(1-((2-(Methoxymethyl)benzofuran-7-yl)amino)ethylidene)-5-phenylcyclohexane-1,3-dione]: the half-inhibitory concentration (IC50) (commonly the concentration that inhibits the measured activity by half) in the experiment with MDA-MB-231 cells [1] stood at 0.009 ± 0.001 µM; with HeLa cells, 0.03 ± 0.002 µM; in the experiment with HMEC-1 cells [2], 0.016 ± 0.002 µM. For the same compound, in the experiment on MDA-MB-231 cells [3], the “apoptotic rate (apoptotic cells, caspase-3 substrate)” value is recorded as ~ 30%. For the same compound, the entries for the “disruption of the vascular (tubular) network” value with HMEC-1 cells [4] (0.01 μM) and with HMEC-1 cells [4] (0.1 μM) were “antivascular effect was still evident” and “nearly completely abrogated the vascular network”, respectively.
For the compound `CC(Nc1cccc2cc(COCCCO)oc12)=C1C(=O)CC(c2ccccc2)CC1=O` (stereo not drawn) [Compound 28, 2-(1-((2-((3-Hydroxypropoxy)methyl)benzofuran-7-yl)amino)ethylidene)-5-phenylcyclohexane-1,3-dione], the results for the concentration for half-maximal inhibition (IC50) in the experiment with MDA-MB-231 cells [1], in the experiment with HeLa cells and in the experiment on HMEC-1 cells [2] were 0.012 ± 0.005 µM, 0.034 ± 0.003 µM and 0.038 ± 0.003 µM, respectively. In addition, in the experiment with MDA-MB-231 cells [3], the “apoptotic rate (apoptotic cells, caspase-3 substrate)” value is reported as around 40%. Besides, the “disruption of the vascular (tubular) network” value in the experiment on HMEC-1 cells [4] (0.01 μM) was “antivascular effect was still evident”; in the experiment with HMEC-1 cells [4] (0.1 μM) it was “nearly completely abrogated the vascular network”.
